In data set [1] the test system is Cholera toxin (CTx) challenge. As to conditions: mouse, in vivo.
For data set [2] the following is noted: cited from earlier work.

For the compound Sucralfate, the “Effect on volume of intestinal secretion upon CTx challenge” value in data set [1] is reported as “neither polyphenol nor sucralfate reduced the volume of intestinal secretion”. For the same compound, the “Solubility in water” value in data set [2] was “poorly soluble”.
On to `O=S(=O)([O-])OC[C@H]1O[C@@](COS(=O)(=O)[O-])(O[C@H]2O[C@H](COS(=O)(=O)[O-])[C@@H](OS(=O)(=O)[O-])[C@H](OS(=O)(=O)[O-])[C@H]2OS(=O)(=O)[O-])[C@@H](OS(=O)(=O)[O-])[C@@H]1OS(=O)(=O)[O-].[K+].[K+].[K+].[K+].[K+].[K+].[K+].[K+]` [Sucrose octasulfate-potassium salt], for which the “Solubility in water” value in data set [2] is listed as “freely soluble”.

The values are drawn from patent US12064443B2 (priority 2021, dated 2024).
